# Measurements: patent publication US20080318970A1, “Treatment of Infectious Diseases” (priority 2004, published 2008)
# Read-outs that look alike come from different tables or passages of the source.
# Assays:
# [1] = system: E. coli, LN 3164; test: MIC susceptibility test, microdilution broth method (NCCLS), chemosensitising compound alone; format: cell-based; conditions: 16 h
# Experimental: Bacteria were sub-cultured on Mueller-Hinton agar plates and incubated over night at 37° C. Pre-warmed Mueller-Hinton broth was inoculated with colonies from the plate and incubated for approximately three hours to achieve a log phase culture. The log phase culture of bacteria was diluted with fresh pre-warmed medium and adjusted to a defined Optical Density (OD) at 600 nm in order to give a final assay concentration of 1×10^4 bacteria/ml medium.
# Cell growth was tested using the MIC susceptibility tests by use of the microdilution broth method in accordance to the NCCLS Guidelines (NCCLS Guidelines, Methods for Dilution Antimicrobial Susceptibility Tests for Bacteria That Grow Aerobically; Approved Standard, Sixth Edition, Volume 23; Number 2). A 100% Mueller-Hinton broth and a bacterial concentration of 1×10^4/ml were used.
# A log phase culture of bacteria was diluted with fresh pre-warmed medium and adjusted to a defined OD at 600 nm in order to give a final concentration of 1×10^4 bacteria/ml medium in each well. Each chemosensitising compound was added to the bacterial culture in the wells in two-fold dilutions in order to give final concentrations ranging from 8 to 500 μg/ml. Trays were incubated at 37° C. for 16 h. Minimal Inhibitory Concentration, (MIC) is defined as the lowest inhibitory concentration showing no visible growth according to the NCCLS Guidelines.
# [2] = system: E. coli, LN 3164; test: Effect of chemosensitising compounds on DR (DR ratio) with ciprofloxacin, microtiter assay; format: cell-based; conditions: for DR ratio: MIC ciprofloxacin alone / MIC ciprofloxacin + chemosensitising compound at ¼ of its MIC
# Experimental: The effects of the chemosensitising compounds on DR were studied by the microtiter assay described above by exposing cells to 0-64 μg/ml anti-infective drug in the absence or presence of chemosensitising compound. Each experiment was repeated in tripleduplicate. MIC values represent the mean values of two separate experiments.
# A log phase culture of bacteria was diluted with fresh pre-warmed medium and adjusted to a defined OD at 600 nm in order to give a final concentration of 1×10^4 bacteria/ml medium in each well. […] Anti-infective agent was added to the bacterial culture in the wells in two-fold dilutions in order to give final concentrations ranging from 0 to 64 μg/ml. Trays were incubated at 37° C. for 16 h. The DR ratio was defined as the ratio between the MIC value for anti-infective agent alone divided by the MIC for the anti-infective agent in the presence of the chemosensitising compound. This ratio represents the increase in apparent potency of the anti-infective agent caused by the chemosensitising compound, and may be expressed as
# DR ratio=(MICanti-infective agent)/(MICanti-infective agent+chemosensitising compound)
# [3] = system: Fluconazole Resistant Candida albicans; test: Checkerboard combination study on fungals, broth microdilution (NCCLS M27-A); format: cell-based; conditions: Candida albicans
# Experimental: The synergistic effect of Trans-clopenthixol was studied by checkerboard combination studies exposing cells to 0-256 μg/ml anti-infective agent in the absence or presence of trans-clopenthixol (0 to 8 μg/ml in two-fold dilutions). Each experiment was repeated in tripleduplicate. MIC values represent the mean values of two separate experiments.
# Clinical Isolate of a Fluconazole Resistant Candida albicans from a Patient with candidemia.
# The isolates were subcultured for 24 h on Sabouraud glucose agar before susceptibility testing.
# Broth microdilution tests were performed according to NCCLS document M27-A (Ref: National Committee for Clinical Laboratory Standards. (1997). Reference Method for Broth Dilution Antifungal Susceptibility Testing of Yeasts: Approved Standard M27-A. NCCLS, Wayne, Pa.)
# Microtitre plates were read spectrophotometrically at 530 nm, after mixing the wells by pipetting to resuspend yeast sediments.
# The Fractional Inhibitory Concentration (FIC) was calculated for the anti-infective agent alone and in combination with trans-clopenthixol. The following formulae were used to calculate the FIC index:
# (§1) FIC=FICchemosensitising compound+FICanti-infective agent
# (§2) FICchemosensitising compound=(MICchemosensitising compound+anti-infective agent)/(MICchemosensitising compound)
# FICanti-infective agent=(MICanti-infective agent+chemosensitising compound/(MICanti-infective agent)
# (§3) Synergy was defined as a FIC index of <0.5.
# [4] = clinical trial versus placebo, Johnstone et al.; cited from earlier work
# [5] = system: S. aureus E45; test: Checkerboard combination study (FIC index); format: cell-based, Staphylococcus aureus; conditions: isolate resistant (R)
# Experimental: Staphylococcus aureus E45 MRSA. Clinical isolate. Resistant to methicillin. Susceptible to teicoplanin chloramphenicol, fosfomycin, netilmicin and vancomycin.
# (§4) The synergistic effect was studied by checkerboard combination studies exposing cells to 0-64 μg/ml anti-infective agent in the absence or presence of trans-flupenthixol, cis-flupenthixol or trans-clopenthixol. Each experiment was repeated in tripleduplicate. MIC values represent the mean values of two separate experiments,
# (§5) A log phase culture of bacteria was diluted with fresh pre-warmed medium and adjusted to a defined OD at 600 nm in order to give a final concentration of 1×10^4 bacteria/ml medium in each well. Each chemosensitising compound was added to the bacterial culture in the wells in two-fold dilutions in order to give final concentrations ranging from 0 to 8 μg/ml. Anti-infective agent was added to the bacterial culture in the wells in two-fold dilutions in order to give final concentrations ranging from 0 to 64 μg/ml Trays were incubated at 37° C. for 16 h. Wells were assessed visually for growth. The Fractional Inhibitory Concentration (FIC) was calculated for each anti-infective agent alone and in combination with trans-flupenthixol, cis-flupenthixol or trans-clopenthixol. The following formulae were used to calculate the FIC index:
# as §1, §2
# (§6) FICanti-infective agent=(MICanti-infective agent+chemosensitising compound/(MICanti-Infective agent)
# as §3
# [6] = system: S. aureus O11; test: Checkerboard combination study (FIC index); format: cell-based, Staphylococcus aureus; conditions: anti-infective agent Dicloxacillin; isolate susceptible (S)
# Experimental: Staphylococcus aureus O11. Clinical isolate resistant to penicillin. Susceptible to methicillin, tetracycline, beta-lactams, fluoroquinolones, chloramphenicol and aminoglycosides.
# as §4, §5, §1, §2, §6, §3
# [7] = system: P. aeruginosa 432b; test: Checkerboard combination study (FIC index); format: cell-based; conditions: isolate resistant (R)
# Experimental: P. aeruginosa 432b. Clinical multidrug resistant isolate. Resistant to tetracycline, beta-lactams, fluoroquinolones, and aminoglycosides. Beta-lactamase producing, changes in Penicillin Binding Proteins and changes in Outer Membrane Proteins.
# as §4, §5, §1, §2, §6, §3
# [8] = system: E. faecalis F84; test: Checkerboard combination study (FIC index); format: cell-based, Enterococcus faecalis; conditions: for FIC index: MDR isolate
# Experimental: Enterococcus faecalis, F84. A multidrug resistant clinical isolate.
# as §4
# as §5, with “Each chemosensitising compound was added to the bacterial culture in the wells in two-fold dilutions in order to give final concentrations ranging from 0 to 8 μg/ml.” left out
# as §1, §2, §6, §3
# [9] = system: E. coli 331ME; test: Checkerboard combination study (FIC index); format: cell-based; conditions: MDR isolate
# Experimental: E. coli 331 ME. In vivo-selected multidrug resistant clinical isolates of E. coli. Strains were isolated from a patient with severe cystitis/urosepsis. Resistant to tetracycline, beta-lactams, fluoroquinolones, chloramphenicol and aminoglycosides.
# as §4, §5, §1, §2, §6, §3
# [10] = system: E. faecalis F86; test: Checkerboard combination study (FIC index); format: cell-based, Enterococcus faecalis; conditions: anti-infective agent Dicloxacillin; isolate susceptible (S)
# Experimental: Enterococcus faecalis, F86. Susceptible clinical isolate. No development of resistance.
# as §4, §5, §1, §2, §6, §3
# [11] = system: E. coli LN 3164; test: Checkerboard combination study (FIC index); format: cell-based; conditions: MDR isolate
# Experimental: E. coli, LN 3164. Acr AB-ToIC MDR in vitro-selected mutant. Resistant to tetracycline, beta-lactams, fluoroquinolones, chloramphenicol and aminoglycosides.
# as §4, §5, §1, §2, §6, §3
# [12] = system: non-resistant mouse pathogen isolate of Streptococcus pneumoniae; conditions: Kristiansen et al. 1998; cited from earlier work
# [13] = anti-infective agent Dicloxacillin
# [14] = anti-infective agent Fucidic acid
# [15] = anti-infective agent Ciprofloxacin
# [16] = anti-infective agent Gentamicin
# [17] = anti-infective agent Piperacillin
compound,measurement,setting,value
CN(C)CCCN1c2ccccc2Sc2cccc(Cl)c21 [1-chlorpromazine],MIC,[1]; 37° C.,64 µg/mL
same,DR ratio,[2]; E. coli LN 3164,2
CN(C)CCN1c2ccccc2Sc2ccc(Cl)cc21 [2-chloro-10-(2-dimethylaminoethyl)phenothiazine],MIC,"[1]; Escherichia coli, LN3164, 37° C., read-out: MIC",64 µg/mL
same,DR ratio,[2]; E. coli LN 3164,2
"CN(C)CCCN1c2cc(Cl)ccc2Sc2cc(O)c(O)cc21 [7,8-dihydroxy-chlorpromazine, 7,8-dihydroxychlorpromazine]",MIC,[1]; 37° C.,125 µg/mL
same,DR ratio,[2]; E. coli LN 3164,0.5
"CN(C)CCCN1c2ccc(O)cc2Sc2ccc(Cl)cc21 [7-hydroxy-chlorpromazine, 7-hydroxychlorpromazine]",MIC,[1]; 37° C.,125 µg/mL
same,DR ratio,[2]; E. coli LN 3164,1
"CNCCCN1c2ccccc2Sc2ccc(Cl)cc21 [Desmethyl-chlorpromazine, desmethylchlorpromazine]",MIC,[1]; 37° C.,32 µg/mL
same,DR ratio,[2]; E. coli LN 3164,2
"OC(Cn1cncn1)(Cn1cncn1)c1ccc(F)cc1F [Fluconazole, reference compound]",MIC,[3],128 µg/mL
"OCCN1CCN(CCCN2c3ccccc3Sc3ccc(C(F)(F)F)cc32)CC1 [Fluphenazine, fluphenazine]",MIC,[1]; 37° C.,32 µg/mL
same,DR ratio,[2]; E. coli LN 3164,8
"OCCN1CCN(CCCN2c3ccccc3Sc3ccc(Cl)cc32)CC1 [Perphenazine, perphenazine]",MIC,[1]; 37° C.,125 µg/mL
same,DR ratio,[2]; E. coli LN 3164,4
"CN1CCN(CCCN2c3ccccc3Sc3ccc(Cl)cc32)CC1 [Prochlorperazine, prochlorperazine]",MIC,[1]; 37° C.,64 µg/mL
same,DR ratio,[2]; E. coli LN 3164,4
"CN(C)CCCN1c2ccccc2Sc2ccccc21 [Promazine, promazine]",MIC,[1]; 37° C.,64 µg/mL
same,sensitised drug resistant cells to ciprofloxacin by,"[2]; E. coli LN 3164, ciprofloxacin",100%
same,DR ratio,[2]; E. coli LN 3164,2
"CC(CN1c2ccccc2Sc2ccccc21)N(C)C (centres unmarked) [Promethazine, promethazine]",MIC,[1]; 37° C.,64 µg/mL
same,DR ratio,[2]; E. coli LN 3164,8
"CSc1ccc2c(c1)N(CCCN(C)C)c1ccccc1S2 [Thiomethylpromazine, thiomethylpromazine]",MIC,[1]; 37° C.,32 µg/mL
same,DR ratio,[2]; E. coli LN 3164,4
"CN1CCN(CCCN2c3ccccc3Sc3ccc(C(F)(F)F)cc32)CC1 [Trifluoperazine, trifluoperazine]",MIC,[1]; 37° C.,16 µg/mL
same,DR ratio,[2]; E. coli LN 3164,16
"CN(C)CCCN1c2ccccc2Sc2ccc(C(F)(F)F)cc21 [Trifluopromazine, trifluopromazine]",MIC,[1]; 37° C.,32 µg/mL
same,DR ratio,[2]; E. coli LN 3164,8
CN(C)CCCN1c2ccccc2[S+]([O-])c2ccc(Cl)cc21 (centres unmarked) [chlorpromazine sulfoxide],activity against drug resistance (in words),"[2]; E. coli LN 3164, ciprofloxacin",same activity against drug resistance as did chlorpromazine
CN(C)CCCN1c2ccccc2Sc2ccc(Cl)cc21 [chlorpromazine],MIC,[1]; 37° C.,32 µg/mL
same,sensitised drug resistant cells to ciprofloxacin by,"[2]; E. coli LN 3164, ciprofloxacin",220%
same,DR ratio,[2]; E. coli LN 3164,4
same,"increase in anti-DR activity, tertiary versus secondary amine",[2]; chlorpromazine versus desmethylchlorpromazine,1.6 fold
"OCCN1CCN(CC/C=C2/c3ccccc3Sc3ccc(C(F)(F)F)cc32)CC1 [cis-flupenthixol, reference compound]",anti-psychotic effect (in words),[4],potent neuroleptic
same,FIC index,[5]; [13],0.25
same,FIC index,[5]; [14],0.26
same,FIC index,[6],0.50
same,MIC,[1]; 37° C.,32 µg/mL
same,DR ratio,[2]; E. coli LN 3164,32
same,FIC index,[7]; [15],0.06
same,FIC index,[7]; [16],0.13
same,FIC index,[7]; [17],0.25
same,FIC index,[8]; [13],0.13
same,FIC index,[8]; anti-infective agent Vanomycin,0.25
same,FIC index,[9]; [15],0.013
same,FIC index,[9]; [16],0.06
same,FIC index,[9]; [17],0.25
same,FIC index,[10],0.50
same,FIC index,[11]; [15],0.25
same,FIC index,[11]; [16],0.25
same,FIC index,[11]; [17],0.25
OCCN1CCN(CC/C=C2\c3ccccc3Sc3ccc(C(F)(F)F)cc32)CC1 [trans-flupenthixol],anti-psychotic effect (in words),[4],no activity as an anti-psychotic
same,FIC index,[5]; [13],0.13
same,FIC index,[5]; [14],0.13
same,FIC index,[6],0.50
same,MIC,[1]; 37° C.,32 µg/mL
same,DR ratio,[2]; E. coli LN 3164,64
same,FIC index,[7]; [15],0.03
same,FIC index,[7]; [16],0.06
same,FIC index,[7]; [17],0.13
same,FIC index,[8]; [13],0.06
same,FIC index,[8]; anti-infective agent Vanomycin,0.13
same,FIC index,[9]; [15],0.006
same,FIC index,[9]; [16],0.02
same,FIC index,[9]; [17],0.13
same,FIC index,[10],0.50
same,FIC index,[11]; [15],0.13
same,FIC index,[11]; [16],0.063
same,FIC index,[11]; [17],0.13
"CN[C@H](CC(C)C)C(=O)N[C@H]1C(=O)N[C@@H](CC(N)=O)C(=O)N[C@H]2C(=O)N[C@H]3C(=O)N[C@H](C(=O)N[C@H](C(=O)O)c4cc(O)cc(O)c4-c4cc3ccc4O)[C@H](O)c3ccc(c(Cl)c3)Oc3cc2cc(c3O[C@@H]2O[C@H](CO)[C@@H](O)[C@H](O)[C@H]2O[C@H]2C[C@](C)(N)[C@H](O)[C@H](C)O2)Oc2ccc(cc2Cl)[C@H]1O [vancomycin, reference compound]",MIC value,[8]; E. faecalis F84 cultivated in the presence of vancomycin at 4 μg/ml,4 μ/ml
penicillin,MIC,[12],0.02 µg/mL
